Assay results: patent US11891379B2, “Deuterated Defactinib compound and use thereof” (HINOVA PHARMACEUTICALS INC., priority 2018, dated 2024)

Key:
[1] = Metabolic stability in mouse liver microsomes; format: in vitro ADME; details: for half-life at 2 μM: mouse liver microsomes 0.5 mg/mL, test compound 2 μM, sampling 0-60 min, read-out: Half life t1/2 (min) in mouse liver microsomes; for metabolic stability in the liver microsomes compared with non-deuterated control defactinib: mouse liver microsomes, result in words
Experimental: (§1) Step 1. The mother solution was prepared according to the component ratio in Table 1 below:
(§2) Step 2: Two experiments were carried out as follows:
(§3) A) Adding reduced coenzyme II (NADPH): 20 mg/mL liver microsomes (10 μL) and 10 mM NADPH (40 μL) were added into the incubation experiment. The final concentrations of liver microsomes and NADPH were 0.5 mg/mL and 1 mM, respectively.
(§4) B) Without NADPH: 20 mg/mL liver microsomes (10 μL) and high pure water (40 μL) were added into the incubation experiment. The final concentration of liver microsomes was 0.5 mg/mL.
(§5) Step 3: The reaction began after adding 200 μM positive control (4 μL) or test compound. The positive control was verapamil in this experiment. The final concentration of the test compound was 2 μM.
(§6) Step 4: At the time points 0 min, 15 min, 30 min, 45 min, and 60 min, 50 μL solution was sampled from each reaction solution. Acetonitrile (4× volumes of reaction solution) and IS (100 nM alprazolam, 200 nM labetalol, 200 nM caffeine, and 2 μM ketoprofen) were added to the reaction solution. The sample was centrifuged at 3220 g gravity for 40 min. 100 μL high pure water was added into 100 μL supernatant and analyzed by LC-MS/MS.
(§7) Step 5: Data analysis: the peak area was determined from the extracted ion chromatogram. The slope value k was determined by linear regression of the natural logarithm obtained from the curve between the residual percentage of parent drug and the incubation time.
(§8) In vitro half-life (In vitro t1/2) was determined by the slope value: in vitro t1/2=−([…]/k In vitro intrinsic clearance (in vitro CLint, in […]) was converted from in vitro half-life t1/2 (min) using the following equation (mean value of repeated determinations): […]
(§9) Scale up intrinsic clearance (Scale up CLint, in mL/min/kg) was converted from in vitro half-life t1/2 (min) using the following equation (mean value of repeated determinations): […]

[2] = Metabolic stability in rat liver microsomes; format: in vitro ADME; details: for half-life at 2 μM: rat liver microsomes 0.5 mg/mL, test compound 2 μM, sampling 0-60 min, read-out: Half life t1/2 (min) in rat liver microsomes; for metabolic stability in the liver microsomes compared with non-deuterated control defactinib: rat liver microsomes, result in words
Experimental: as §1, §2, §3, §4, §5, §6, §7, §8, §9

[3] = Metabolic stability in human liver microsomes; format: in vitro ADME; details: for half-life at 2 μM: human liver microsomes 0.5 mg/mL, test compound 2 μM, sampling 0-60 min, read-out: Half life t1/2 (min) in human liver microsomes; for metabolic stability in the liver microsomes compared with non-deuterated control defactinib: human liver microsomes, result in words
Experimental: as §1, §2, §3, §4, §5, §6, §7, §8, §9

[4] = Pharmacokinetic experiment in rats (PO, 10 mpk); format: in vivo; details: Sprague-Dawley (SD), rat, 10 mg/kg, male SD rats, PO by gavage, plasma; for AUC: read-out: Exposure dose AUC; for half-life: read-out: Half life t1/2 (converted); for Tmax: read-out: Peak hours tmax; for Cmax: read-out: Peak plasma concentration Cmax(ng/mL); for MRT inf: read-out: Retention time MRTinf
Experimental: Appropriate amount of drug (equivalent to 10 mg of the original drug) was accurately weighed, to which was first added 0.25 ml DMA to dissolve drug, and 0.5% CMC-Na was slowly added to 5 ml, then mixed well with ultrasonic and vortex. 0.2 ml final solution prepared was taken out and stored at −20° C. for concentration determination. Three healthy adult male SD rats (180-250 g) received drugs at 5 ml/kg by gavage after fasting overnight (free drinking water); 0.1 ml blood was collected from retroorbital venous plexus before administration and 0.5, 1, 2, 4, 6, 8, 12 and 24 h after administration, and plasma was separated by centrifugation at 4° C. for 5 min and stored at −20° C. for use. Then, LC/MS/MS method was used to determine the concentration of compounds in plasma.

Compound	half-life at 2 μM [1]	metabolic stability in the liver microsomes compared with non-deuterated control defactinib [1]	half-life at 2 μM [2]	metabolic stability in the liver microsomes compared with non-deuterated control defactinib [2]	half-life at 2 μM [3]	metabolic stability in the liver microsomes compared with non-deuterated control defactinib [3]	AUC [4]	half-life [4]	Tmax [4]	Cmax [4]	MRT inf [4]
[2H]C([2H])([2H])NC(=O)c1ccc(Nc2ncc(C(F)(F)F)c(NCc3nccnc3N(C)S(C)(=O)=O)n2)cc1 [Compound 1, N-(trideuteromethyl)-4-((4-(((3-(N-methylmethylsulfonyl)pyrazin-2-yl)methyl)amino)-5-(trifluoromethyl)pyrimidin-2-yl)amino)benzamide]	87 min	significantly improved	151 min	significantly improved	894 min	significantly improved	2840 ng·h/mL	1.74 h	0.67 h	1220 ng/mL	2.03 h
[2H]C([2H])([2H])NC(=O)c1ccc(Nc2ncc(C(F)(F)F)c(NCc3nccnc3N(C([2H])([2H])[2H])S(C)(=O)=O)n2)cc1 [Compound 3, N-(trideuteromethyl)-4-((4-(((3-(N-deuteromethylmethanesulfonamido)pyrazin-2-yl)methyl)amino)-5-(trifluoromethyl)pyrimidin-2-yl)amino)benzamide]	406 min	significantly improved	370 min	significantly improved	781 min	significantly improved	3740 ng·h/mL	2.46 h	1.67 h	971 ng/mL	3.35 h
[2H]C([2H])([2H])N(c1nccnc1CNc1nc(Nc2ccc(C(=O)NC)cc2)ncc1C(F)(F)F)S(C)(=O)=O [Compound 2, N-methyl-4-((4-(((3-(N-deuteromethylmethanesulfonamido)pyrazin-2-yl)methyl)amino)-5-(trifluoromethyl)pyrimidin-2-yl)amino)benzamide]	70 min		47 min	slightly worse	100 min	slightly worse					
CNC(=O)c1ccc(Nc2ncc(C(F)(F)F)c(NCc3nccnc3N(C)S(C)(=O)=O)n2)cc1 [Defactinib, N-methyl-4-((4-(((3-(N-methylmethylsulfonyl)pyrazin-2-yl)methyl)amino)-5-(trifluoromethyl)pyrimidin-2-yl)amino)benzamide]	63 min		94 min		260 min		1650 ng·h/mL	1.46 h	0.67 h	643 ng/mL	2.4 h
